Assay results reported in ChEMBL document CHEMBL3885861, “Open TG-GATES”.

Species: Rattus norvegicus
Assay: Open TG-GATES - Regimen: Single
Format: toxicity, organism-based, Sprague-Dawley
Set-up: regimen Single, gender Male, age 6 weeks
Conditions: in vivo, po, 100 mg/kg, route gavage, dose level Low; for APTT / Bas / Eos / Fbg / Hb / Ht / Lym / MCH / MCHC / MCV / Mono / Neu / PT / Plat / RBC / Ret / WBC: tissue Blood; for KIDNEY_L / KIDNEY_R / KIDNEY_TOTAL: tissue Kidney; for LIVER: tissue Liver; for A/G / ALP / ALT / AST / BUN / CRE / Ca / Cl / DBIL / GLC / IP / K / LDH / Na / PL / RALB / TBIL / TC / TG / TP / gamma-GTP: tissue Plasma

Question: For `CC[C@@H](CO)NCCN[C@@H](CC)CO` [ETHAMBUTOL], which TERMINAL_BW (3 h) is on record?
Answer: 224 g

Question: What about the APTT (3 h) of the same molecule?
Answer: 21.6 s

Question: And the Bas (3 h)?
Answer: 0%

Question: What about the Eos (3 h) of the same molecule?
Answer: 0.8%

Question: And the Fbg (3 h)?
Answer: 308 mg/dL

Question: What about the Hb (3 h) of the same molecule?
Answer: 13.7 g/dL

Question: What about the Ht (3 h) of the same molecule?
Answer: 40%

Question: And the Lym (3 h)?
Answer: 80.4%

Question: What about the MCH (3 h) of the same molecule?
Answer: 21.9 pg

Question: And the MCHC (3 h)?
Answer: 34.1%

Question: What about the MCV (3 h) of the same molecule?
Answer: 64.2 fL

Question: What about the Mono (3 h) of the same molecule?
Answer: 2.4%

Question: And the Neu (3 h)?
Answer: 14.8%

Question: What about the PT (3 h) of the same molecule?
Answer: 15.6 s

Question: What about the Plat (3 h) of the same molecule?
Answer: 118 x10_4/uL

Question: And the RBC (3 h)?
Answer: 623.8 x10_4/ul

Question: And the Ret (3 h)?
Answer: 8.1%

Question: What about the WBC (3 h) of the same molecule?
Answer: 87.8 x10_2/uL

Question: What about the KIDNEY_L (3 h) of the same molecule?
Answer: 1 g

Question: And the KIDNEY_R (3 h)?
Answer: 1 g

Question: And the KIDNEY_TOTAL (3 h)?
Answer: 2 g

Question: What about the LIVER (3 h) of the same molecule?
Answer: 10.9 g

Question: What about the A/G (3 h) of the same molecule?
Answer: 1.2

Question: And the ALP (3 h)?
Answer: 1530.6 IU/L

Question: What about the ALT (3 h) of the same molecule?
Answer: 41 IU/L

Question: And the AST (3 h)?
Answer: 73 IU/L

Question: What about the BUN (3 h) of the same molecule?
Answer: 12.6 mg/dL

Question: And the CRE (3 h)?
Answer: 0.1 mg/dL

Question: What about the Ca (3 h) of the same molecule?
Answer: 10.4 mg/dL

Question: What about the Cl (3 h) of the same molecule?
Answer: 107.4 meq/L

Question: And the DBIL (3 h)?
Answer: 0 mg/dL

Question: And the GLC (3 h)?
Answer: 189.8 mg/dL

Question: And the IP (3 h)?
Answer: 8.6 mg/dL

Question: And the K (3 h)?
Answer: 4 meq/L

Question: And the LDH (3 h)?
Answer: 172.8 IU/L

Question: What about the Na (3 h) of the same molecule?
Answer: 142.2 meq/L

Question: And the PL (3 h)?
Answer: 134.2 mg/dL

Question: And the RALB (3 h)?
Answer: 3 g/dL

Question: And the TBIL (3 h)?
Answer: 0.018 mg/dL

Question: What about the TC (3 h) of the same molecule?
Answer: 72.6 mg/dL

Question: What about the TG (3 h) of the same molecule?
Answer: 74.4 mg/dL

Question: What about the TP (3 h) of the same molecule?
Answer: 5.4 g/dL

Question: And the gamma-GTP (3 h)?
Answer: 1.8 IU/L

Question: And the TERMINAL_BW (6 h)?
Answer: 222.5 g

Question: What about the APTT (6 h) of the same molecule?
Answer: 21.1 s

Question: And the Bas (6 h)?
Answer: 0%

Question: And the Eos (6 h)?
Answer: 0.8%

Question: What about the Fbg (6 h) of the same molecule?
Answer: 318 mg/dL

Question: What about the Hb (6 h) of the same molecule?
Answer: 13.5 g/dL

Question: And the Ht (6 h)?
Answer: 39.8%

Question: And the Lym (6 h)?
Answer: 78.8%

Question: What about the MCH (6 h) of the same molecule?
Answer: 21.8 pg

Question: And the MCHC (6 h)?
Answer: 33.9%

Question: And the MCV (6 h)?
Answer: 64.2 fL

Question: What about the Mono (6 h) of the same molecule?
Answer: 2.8%

Question: What about the Neu (6 h) of the same molecule?
Answer: 16%

Question: What about the PT (6 h) of the same molecule?
Answer: 15.8 s

Question: What about the Plat (6 h) of the same molecule?
Answer: 119.6 x10_4/uL

Question: And the RBC (6 h)?
Answer: 620.4 x10_4/ul

Question: What about the Ret (6 h) of the same molecule?
Answer: 7.4%

Question: What about the WBC (6 h) of the same molecule?
Answer: 92.6 x10_2/uL

Question: What about the KIDNEY_L (6 h) of the same molecule?
Answer: 1 g

Question: And the KIDNEY_R (6 h)?
Answer: 1.1 g

Question: What about the KIDNEY_TOTAL (6 h) of the same molecule?
Answer: 2.1 g

Question: What about the LIVER (6 h) of the same molecule?
Answer: 10.2 g

Question: What about the A/G (6 h) of the same molecule?
Answer: 1.2

Question: And the ALP (6 h)?
Answer: 1476.2 IU/L

Question: And the ALT (6 h)?
Answer: 45.6 IU/L

Question: What about the AST (6 h) of the same molecule?
Answer: 77 IU/L

Question: And the BUN (6 h)?
Answer: 12.6 mg/dL

Question: And the CRE (6 h)?
Answer: 0.2 mg/dL

Question: And the Ca (6 h)?
Answer: 10.3 mg/dL

Question: What about the Cl (6 h) of the same molecule?
Answer: 106.6 meq/L

Question: What about the DBIL (6 h) of the same molecule?
Answer: 0 mg/dL

Question: What about the GLC (6 h) of the same molecule?
Answer: 180.4 mg/dL

Question: What about the IP (6 h) of the same molecule?
Answer: 9.2 mg/dL

Question: And the K (6 h)?
Answer: 4.3 meq/L

Question: And the LDH (6 h)?
Answer: 191.6 IU/L

Question: What about the Na (6 h) of the same molecule?
Answer: 140 meq/L

Question: And the PL (6 h)?
Answer: 128.6 mg/dL

Question: And the RALB (6 h)?
Answer: 2.9 g/dL

Question: And the TBIL (6 h)?
Answer: 0.02 mg/dL

Question: What about the TC (6 h) of the same molecule?
Answer: 72.8 mg/dL

Question: What about the TG (6 h) of the same molecule?
Answer: 54.6 mg/dL

Question: What about the TP (6 h) of the same molecule?
Answer: 5.3 g/dL

Question: What about the gamma-GTP (6 h) of the same molecule?
Answer: 1.8 IU/L

Question: What about the TERMINAL_BW (9 h) of the same molecule?
Answer: 224.5 g

Question: And the APTT (9 h)?
Answer: 22.3 s

Question: And the Bas (9 h)?
Answer: 0%

Question: And the Eos (9 h)?
Answer: 1%

Question: What about the Fbg (9 h) of the same molecule?
Answer: 293.4 mg/dL

Question: And the Hb (9 h)?
Answer: 13.3 g/dL

Question: What about the Ht (9 h) of the same molecule?
Answer: 38.9%

Question: What about the Lym (9 h) of the same molecule?
Answer: 80%

Question: What about the MCH (9 h) of the same molecule?
Answer: 21.8 pg

Question: What about the MCHC (9 h) of the same molecule?
Answer: 34.2%

Question: What about the MCV (9 h) of the same molecule?
Answer: 63.6 fL

Question: And the Mono (9 h)?
Answer: 2.2%

Question: And the Neu (9 h)?
Answer: 15.6%

Question: And the PT (9 h)?
Answer: 16.2 s

Question: And the Plat (9 h)?
Answer: 116.9 x10_4/uL

Question: And the RBC (9 h)?
Answer: 613 x10_4/ul

Question: What about the Ret (9 h) of the same molecule?
Answer: 8%

Question: And the WBC (9 h)?
Answer: 92.7 x10_2/uL

Question: What about the KIDNEY_L (9 h) of the same molecule?
Answer: 1 g

Question: And the KIDNEY_R (9 h)?
Answer: 1 g

Question: What about the KIDNEY_TOTAL (9 h) of the same molecule?
Answer: 2.1 g

Question: And the LIVER (9 h)?
Answer: 9.4 g

Question: What about the A/G (9 h) of the same molecule?
Answer: 1.1

Question: What about the ALP (9 h) of the same molecule?
Answer: 1292.4 IU/L

Question: What about the ALT (9 h) of the same molecule?
Answer: 36.6 IU/L

Question: What about the AST (9 h) of the same molecule?
Answer: 66.8 IU/L

Question: And the BUN (9 h)?
Answer: 10 mg/dL

Question: What about the CRE (9 h) of the same molecule?
Answer: 0.2 mg/dL

Question: And the Ca (9 h)?
Answer: 10.1 mg/dL

Question: What about the Cl (9 h) of the same molecule?
Answer: 106.6 meq/L

Question: What about the DBIL (9 h) of the same molecule?
Answer: 0 mg/dL

Question: And the GLC (9 h)?
Answer: 186.2 mg/dL

Question: And the IP (9 h)?
Answer: 9 mg/dL

Question: What about the K (9 h) of the same molecule?
Answer: 4.2 meq/L

Question: And the LDH (9 h)?
Answer: 143 IU/L

Question: What about the Na (9 h) of the same molecule?
Answer: 140.2 meq/L

Question: And the PL (9 h)?
Answer: 128.2 mg/dL

Question: What about the RALB (9 h) of the same molecule?
Answer: 2.9 g/dL

Question: And the TBIL (9 h)?
Answer: 0.02 mg/dL

Question: And the TC (9 h)?
Answer: 75.4 mg/dL

Question: And the TG (9 h)?
Answer: 59.2 mg/dL

Question: And the TP (9 h)?
Answer: 5.4 g/dL

Question: What about the gamma-GTP (9 h) of the same molecule?
Answer: 1.8 IU/L

Question: What about the TERMINAL_BW (24 h) of the same molecule?
Answer: 238.5 g

Question: What about the APTT (24 h) of the same molecule?
Answer: 22.6 s

Question: And the Bas (24 h)?
Answer: 0%

Question: What about the Eos (24 h) of the same molecule?
Answer: 0.6%

Question: What about the Fbg (24 h) of the same molecule?
Answer: 333.2 mg/dL

Question: And the Hb (24 h)?
Answer: 13.4 g/dL

Question: What about the Ht (24 h) of the same molecule?
Answer: 38.7%

Question: What about the Lym (24 h) of the same molecule?
Answer: 82.4%

Question: What about the MCH (24 h) of the same molecule?
Answer: 21.7 pg

Question: What about the MCHC (24 h) of the same molecule?
Answer: 34.7%

Question: What about the MCV (24 h) of the same molecule?
Answer: 62.7 fL

Question: What about the Mono (24 h) of the same molecule?
Answer: 2.2%

Question: And the Neu (24 h)?
Answer: 14%

Question: And the PT (24 h)?
Answer: 15.9 s

Question: What about the Plat (24 h) of the same molecule?
Answer: 119.4 x10_4/uL

Question: What about the RBC (24 h) of the same molecule?
Answer: 618.4 x10_4/ul

Question: And the Ret (24 h)?
Answer: 7.6%

Question: What about the WBC (24 h) of the same molecule?
Answer: 93.8 x10_2/uL

Question: What about the KIDNEY_L (24 h) of the same molecule?
Answer: 1 g

Question: And the KIDNEY_R (24 h)?
Answer: 1.1 g

Question: What about the KIDNEY_TOTAL (24 h) of the same molecule?
Answer: 2.1 g

Question: And the LIVER (24 h)?
Answer: 11.9 g

Question: And the A/G (24 h)?
Answer: 1.2

Question: What about the ALP (24 h) of the same molecule?
Answer: 1636.2 IU/L

Question: And the ALT (24 h)?
Answer: 46.8 IU/L

Question: And the AST (24 h)?
Answer: 75.6 IU/L

Question: What about the BUN (24 h) of the same molecule?
Answer: 17 mg/dL

Question: And the CRE (24 h)?
Answer: 0.1 mg/dL

Question: What about the Ca (24 h) of the same molecule?
Answer: 10.7 mg/dL

Question: And the Cl (24 h)?
Answer: 106.6 meq/L

Question: And the DBIL (24 h)?
Answer: 0 mg/dL

Question: And the GLC (24 h)?
Answer: 186 mg/dL

Question: And the IP (24 h)?
Answer: 8.2 mg/dL

Question: And the K (24 h)?
Answer: 4.1 meq/L

Question: What about the LDH (24 h) of the same molecule?
Answer: 129.2 IU/L

Question: And the Na (24 h)?
Answer: 141.8 meq/L

Question: And the PL (24 h)?
Answer: 157.6 mg/dL

Question: What about the RALB (24 h) of the same molecule?
Answer: 3.1 g/dL

Question: What about the TBIL (24 h) of the same molecule?
Answer: 0.012 mg/dL

Question: And the TC (24 h)?
Answer: 88.8 mg/dL

Question: And the TG (24 h)?
Answer: 87.4 mg/dL

Question: What about the TP (24 h) of the same molecule?
Answer: 5.7 g/dL

Question: What about the gamma-GTP (24 h) of the same molecule?
Answer: 2.2 IU/L
